Laboratory results as given in patent US20120022048A1, “Anti-proliferative substituted pyrazolo[3,4-d]pyrimidines derivatives (SPP) to inhibit immune activation, virus replication and tumor growth” (priority 2010, published 2012).
“Also recorded” adds a separate entry of the source.

Key:
[1] = system: primary human CD4 T-lymphocytes; experiment: Cell hyperproliferation in primary T cells (CFSE staining, mitotic index); assay type: cell-based; details: for anti-proliferative activity (in words) / mitotic index %: SPPs 10 μM, Imatinib 10 μM; for anti-proliferative activity (in words): compared with HU 100 μM, HU+ddI or untreated control; for Anti-proliferative capacity: class symbol, Table 6; for mitotic index %: % of not treated control (100%), day 10, HU 100 μM
Experimental: We built up an experimental model using primary T cells to study the activity of the compounds on induced hyperproliferation of cells, which is a characteristic of both chronic viral diseases and cancer including HIV and leukemia.
(§1) Unstimulated (quiescent/resting, day 0 to 5) primary human CD4 T-lymphocytes were obtained by magnetic bead separation from healthy, normal donors. After five days in culture, cells were activated with PHA (5 μg/ml) to induce hyperproliferation then, at day 7, IL-2 (20 U/ml) was added (stimulated, day 6 to 10). All available compounds were tested at a concentration of 10 μM. […] At day 10, cells were harvested. Proliferation of T cells, cultured as described above, was studied by staining the cells with carboxyfluorescein diacetate-succinimidyl ester (CFSE) at day 0 (immediately after infection). For data analysis, the mitotic index (M) was used, calculating the sum of mitotic events at each proliferation cycle. To extract a relative number, M was normalized to the total number of cells acquired using the equation M=Σ[(Xn(T)−Xn(T)/2^n)], that gives the number of mitotic events from the experimentally obtained values of the proportion of T cells under each division peak n (Xn) and the total T cells (T). To study the effect of the compounds on apoptosis T cells were cultured as described above and at day 10 cells were stained with Annexin V and 7-AAD, in order to determine the percentage of total apoptotic events.

[2] = system: HIV-1 NL 4.3; experiment: HIV-1 replication in activated T cells (PBMC, p24 Ag ELISA); assay type: cell-based; details: for inhibition at 10 µM: Human immunodeficiency virus 1, T-cell, read-out: inhibition of p24 production / HIV replication compared to untreated control; for inhibition at 10 µM / HIV activated cells (% p24 compared to not treated control): activated T cells; for anti-HIV activity in activated T cells (in words): SPPs 10 μM, compared with HU 100 μM, HU+ddI or untreated control; for Antiviral activity in activated cells: class symbol, Table 6; for HIV activated cells (% p24 compared to not treated control): 7 days, SPPs and Imatinib 10 μM, HU 100 μM, ddI 2 μM
Experimental: The experimental setup described below allows us to detect direct antiviral activity of a compound.
Human PBMC, obtained from healthy, normal donors, were stimulated for two days with PHA 5 μg/ml. Then cells were infected with HIV-1 NL 4.3, IL-2 was added (20 U/ml), cells were plated (10^5 cells per well in 200 μl) and drug treatment started. […] The control was left untreated. After 7 days of incubation at 37° C. supernatants were harvested and HIV-1 p24 Ag was measured by ELISA.

[3] = system: HIV-1 NL 4.3; experiment: HIV-1 replication in quiescent CD4 T cells (p24 Ag ELISA); assay type: cell-based; details: for inhibition at 10 µM: Human immunodeficiency virus 1, CD4+ T, quiescent cells, read-out: reduction of HIV-1 p24 production / inhibition of HIV replication compared to untreated control; for anti-HIV activity in quiescent cells (in words) / HIV quiescent cells (percentage p24 compared to the untreated control): SPPs 10 μM; for anti-HIV activity in quiescent cells (in words): compared with HU 100 μM, HU+ddI or untreated control; for Antiviral activity in quiescent cells: class symbol, Table 6; for HIV quiescent cells (percentage p24 compared to the untreated control): quiescent CD4 T cells, day 10, HU 100 μM, HU 100 μM+ddI 2 μM
Experimental: Unstimulated (quiescent/resting, day 0 to 5) human CD4 T-lymphocytes, obtained by magnetic bead separation from healthy, normal donors, were infected with HIV-1 NL 4.3. After five days in culture, cells were stimulated with PHA (5 μg/ml) to induce proliferation, and then, at day 7, IL-2 (20 U/ml) was added (stimulated, day 6 to 10). All available compounds were tested at a concentration of 10 μM. HU 100 μM and HU 100 μM+ddI 2 μM were also employed as comparators and the negative control was left untreated. At day 10, cells and supernatants were harvested and HIV-1 p24 Ag was measured by ELISA. HIV replication was expressed as percentage p24 compared to the untreated control.

[4] = system: primary human CD4 T-lymphocytes; experiment: Apoptosis in primary CD4 T cells (Annexin V and 7-AAD staining); assay type: cell-based; details: SPPs 10 μM; for apoptotic effect (in words): compared with HU 100 μM, HU+ddI or untreated control; for apoptosis %: total apoptotic events compared to untreated control, day 10, Imatinib 10 μM, HU 100 μM, ddI 2 μM
Experimental: as §1
We determined the capacity of the compounds to affect the percentages of apoptotic events after 10 days of treatment in primary CD4 T cells.

[5] = system: Human peripheral blood mononuclear cells (PBMC); details: human, 7 days, 10 μM

SMILES	anti-proliferative activity (in words) [1]	Anti-proliferative capacity [1]	inhibition at 10 µM [2]	anti-HIV activity in activated T cells (in words) [2]	Antiviral activity in activated cells [2]	inhibition at 10 µM [3]	anti-HIV activity in quiescent cells (in words) [3]	Antiviral activity in quiescent cells [3]	apoptotic effect (in words) [4]	% viability [5]	mitotic index % [1]	HIV activated cells (% p24 compared to not treated control) [2]	HIV quiescent cells (percentage p24 compared to the untreated control) [3]	apoptosis % [4]
CSc1nc(NCc2ccccc2)c2cnn(CC(Cl)c3ccccc3)c2n1 (stereo not shown) [VS1-003, 1-(2-chloro-2-phenylethyl)-6-(methylthio)-N-benzyl-1H-pyrazolo[3,4-d]pyrimidin-4-amine]	slightly less potent; also recorded: little inferior anti-proliferative capacity compared to HU; also recorded: somewhat less than that of VS1-002	++ (good (++, 50 to 70% activity))	76%	slightly less potent; also recorded: slightly inferior anti-HIV capacity; also recorded: about as effective as VS1-002	+++ (excellent (+++, greater than 70% activity))	95%	about as effective as VS1-002	+++ (excellent (+++, greater than 70% activity))	no effect on apoptosis; also recorded: did not affect the percentage of apoptotic events; also recorded: did not induce apoptosis	103.4 ± 4.0%	–	–	–	–
CSc1nc(NCCc2ccccc2)c2cnn(CC(Cl)c3ccccc3)c2n1 (stereo not shown) [VS1-004, 1-(2-chloro-2-phenylethyl)-6-(methylthio)-N-(2-phenylethyl)-1H-pyrazolo[3,4-d]pyrimidin-4-amine]	as anti-proliferative as 100 μM HU; also recorded: as effective as HU+ddI; also recorded: as effective as 100 μM HU	+++ (excellent (+++, greater than 70% activity))	88%	good antiviral potency; also recorded: as effective as HU+ddI	+++ (excellent (+++, greater than 70% activity))	93%	good antiviral potency; also recorded: as effective as HU+ddI	+++ (excellent (+++, greater than 70% activity))	only induced a small apoptotic effect; also recorded: same level; also recorded: slight increase	74.9 ± 13.8%	–	–	–	–
CCSc1nc(NCCc2ccccc2)c2cnn(CC(Cl)c3ccccc3)c2n1 (stereo not shown) [VS1-026]	equal to or a little less anti-proliferative than HU	+++ (excellent (+++, greater than 70% activity))	–	–	+++ (excellent (+++, greater than 70% activity))	–	slightly less potent against HIV	++ (good (++, 50 to 70% activity))	not proapoptotic	–	24.9 ± 16.6%	19.6 ± 12.6%	29.3 ± 6.9%	135.3 ± 15.7%
CCSc1nc(Nc2cccc(Cl)c2)c2cnn(CC(Cl)c3ccccc3)c2n1 (stereo not shown) [VS1-027]	good anti-proliferative capacity (superior to 100 μM HU)	+++ (excellent (+++, greater than 70% activity))	–	good anti-HIV activity	+++ (excellent (+++, greater than 70% activity))	–	good anti-HIV activity	+++ (excellent (+++, greater than 70% activity))	no more apoptotic than HU	–	2.4 ± 1.5%	12.0 ± 9.5%	2.7 ± 1.6%	90.1 ± 33.8%
CSc1nc(NCCc2cccc(Cl)c2)c2cnn(CC(Cl)c3ccccc3)c2n1 (stereo not shown) [VS1-028]	good anti-proliferative capacity (superior to 100 μM HU)	+++ (excellent (+++, greater than 70% activity))	–	good anti-HIV activity	+++ (excellent (+++, greater than 70% activity))	–	good anti-HIV activity	+++ (excellent (+++, greater than 70% activity))	no more apoptotic than HU	–	15.2 ± 15.7%	25.7 ± 19.8%	4.4 ± 2.9%	108.6 ± 30.8%
CSc1nc(N2CCOCC2)c2cnn(CC(Cl)c3ccccc3)c2n1 (stereo not shown) [VS1-030]	greater than 100 μM HU and 10 μM Imatinib	–	–	–	–	–	–	–	proapoptotic	–	15.5 ± 4.8%	34.5 ± 13.4%	17.4 ± 10.8%	174.4 ± 16.4%
CCCNc1nc(SC)nc2c1cnn2CC(Cl)c1ccccc1 (stereo not shown) [VS1-031]	greater or equal to that of 100 μM HU	+++ (excellent (+++, greater than 70% activity))	–	effective against HIV	++ (good (++, 50 to 70% activity))	–	effective against HIV	+++ (excellent (+++, greater than 70% activity))	did not induce apoptosis	–	23.9 ± 18.4%	31.6 ± 21.7%	19.1 ± 1.8%	114.4 ± 39.9%
CSc1nc(N2CCCCCC2)c2cnn(CC(Cl)c3ccccc3)c2n1 (stereo not shown) [VS1-034]	comparable or even greater than HU	–	–	–	–	–	–	–	–	–	25.9 ± 12.9%	65.0 ± 12.0%	22.2 ± 7.0%	115.1 ± 34.5%
CSc1nc(NCc2ccc(Cl)cc2)c2cnn(CC(Cl)c3ccccc3)c2n1 (stereo not shown) [VS1-035]	good anti-proliferative activity, similar to HU	–	–	–	–	–	–	–	proapoptotic activity	–	33.8 ± 11.0%	49.5 ± 8.1%	24.0 ± 20.0%	161.0 ± 13.2%
CSc1nc(NCc2ccccc2Cl)c2cnn(CC(Cl)c3ccccc3)c2n1 (stereo not shown) [VS1-036]	greater or equal to that of 100 μM HU	+++ (excellent (+++, greater than 70% activity))	–	effective against HIV	+++ (excellent (+++, greater than 70% activity))	–	effective against HIV	+++ (excellent (+++, greater than 70% activity))	did not induce apoptosis	–	12.0 ± 6.4%	22.1 ± 5.7%	14.5 ± 4.0%	139.3 ± 41.6%
